Test results from patent US5312838A, “β-alanineamide aryl/alkylsulfide/sulfonyl-terminated amino-diol compounds for treatment of hypertension” (G. D. Searle & Co., priority 1992, dated 1994).
Where a SMILES comes first, the peptide text is derived from it. [ ]: non-standard residue; d: D form. The star is where a group is joined. Sta = CC(C)C[C@H](N)[C@@H](O)CC(=O)O; Isovaleryl = CC(C)CC(=O)*

How the values were obtained:
human renin = biological target: T1, human renin (Homo sapiens, UniProt P00797); test: Human Renin Inhibition in vitro (angiotensin I by radioimmunoassay); assay type: biochemical; settings: pH 7.4, 37° C., two hours, human plasma
T1 construct: purchased National Institute for Biological Standards, London
T1 sequence (P00797 67-406): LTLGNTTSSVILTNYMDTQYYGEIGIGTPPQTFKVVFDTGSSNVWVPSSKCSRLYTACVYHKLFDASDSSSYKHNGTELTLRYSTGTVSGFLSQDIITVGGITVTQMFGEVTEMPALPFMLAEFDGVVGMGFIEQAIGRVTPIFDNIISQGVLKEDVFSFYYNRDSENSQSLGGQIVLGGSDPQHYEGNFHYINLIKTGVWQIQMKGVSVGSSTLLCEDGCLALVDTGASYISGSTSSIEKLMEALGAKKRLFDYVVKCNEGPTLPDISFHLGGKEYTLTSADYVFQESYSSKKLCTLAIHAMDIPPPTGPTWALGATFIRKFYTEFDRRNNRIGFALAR
Procedure: Compounds of Formula I were evaluated as inhibitors of human renin in an in vitro assay, as follows: This human renin inhibition test has been previously described in detail [Papaioannou et al., Clinical and Experimental Hypertension, A7(9), 1243-1257 (1985)]. Human renin was obtained from the National Institute for Biological Standards, London. An incubation mixture was prepared containing the following components: in a total volume of 0.25 mL: 100 mM Tris-acetate buffer at pH 7.4, 25×10^-6 Goldblatt units of renin, 0.05 mL of plasma from human volunteers taking oral contraceptives, 6.0 mM Na-EDTA, 2.4 mM phenylmethyl sulfonyl fluoride, 1.5 mM 8-hydroxyquinoline, 0.4 mg/mL bovine serum albumin (BSA), and 0.024 mg/mL neomycin sulfate. This mixture was incubated for two hours at 37° C. in the presence or absence of renin inhibitors. The produced angiotensin I was determined by radioimmunoassay (New England Nuclear kit). Test compounds to be assayed were dissolved in DMSO and diluted with 100 mM Tris-acetate buffer at pH 7.4 containing 0.5% BSA to the appropriate concentration. The final concentration of organic solvent in the reaction mixture was less than 1%. Control incubations at 37° C. were used to correct for effects of organic solvent on renin activity.

pepsin = settings: Umezawa et al, J. Antibiot. 1970; cited from earlier work
cathepsin D = settings: Umezawa et al, J. Antibiot. 1970; cited from earlier work
renin = settings: Umezawa et al, J. Antibiot. 1970; cited from earlier work
hog renin = settings: after injection of hog renin into nephrectomized rats; Gross et al, Science 1971; cited from earlier work

## CC(C)C[C@H](O)[C@H](O)[C@H](CC1CCCCC1)NC(=O)C(C)CNC(=O)C(CSC(C)(C)C)Cc1ccccc1 (stereo partly drawn) [Example 2, N-[3-[[1S,1R*-(cyclohexylmethyl)-2S*,3R*-dihydroxy-5-methylhexyl]amino]-2S*-methyl-2-3-oxopropyl]-α-[[(1,1-dimethylethyl)thio]methyl]benzenepropanamide]
Human renin; @ 10 nM
  inhibition at 0.01 µM: 30%

## CC(C)C[C@H](O)[C@H](O)[C@H](CC1CCCCC1)NC(=O)C(C)CNC(=O)C(Cc1ccccc1)CS(=O)(=O)C(C)(C)C (stereo partly drawn) [Example 1, N-[3-[[1S,1R*-(cyclohexylmethyl)-2S*,3R*-5-methylhexyl]amino]-2S*-methyl-3-oxopropyl]-α-[[(1,1-dimethylethyl)sulfonyl]methyl]benzenepropanamide]
Human renin
  IC50: 10 nM

## CC(C)CC(=O)N[C@H](C(=O)N[C@H](C(=O)N[C@@H](CC(C)C)[C@@H](O)CC(=O)N[C@@H](C)C(=O)N[C@@H](CC(C)C)[C@@H](O)CC(=O)O)C(C)C)C(C)C [pepstatin] (Isovaleryl-VV[Sta]A[Sta]-OH)
pepsin
  inhibitor of pepsin: inhibitor
Cathepsin D
  inhibitor of cathepsin D: inhibitor
renin
  inhibitor of renin: inhibitor
Hog renin
  blood pressure in vivo: reduce blood pressure
